Results published in patent publication US9072750B2, “Use of prostaglandins F2Alpha and analogues for the healing of corneal and conjunctival lesions” (priority 2009, dated 2015).

Key:
[1] = tested on: human corneal epithelial (HCE) cells; test: Scraping wound closure assay on human corneal epithelial cell monolayer; format: cell-based; details: 24 h post scraping
Experimental: Brief description of the protocol: human corneal epithelial (HCE) cells (100 000 cells per well) were plated in 6-well plates and cultured until confluence. At confluence the cell monolayer was scraped with a yellow tip, the medium removed and incubated for 30 min with 1/10 dilutions of the different test articles (PBS (phosphate buffer solution), Xalatan® (aqueous solution of latanoprost at 0.005%), 0.02% BAK (benzalkonium chloride aqueous solution), and the Latanoprost Emulsion of the invention (with 0.005% latanoprost). Following the treatment, test article dilutions were removed and replaced by fresh culture medium. The scraping closure was assessed 2 and 24 h post treatment. Immunohistology of proliferation marker (Ki67) was also performed on cells cultured for 24 h post scraping.

Sprague-Dawley rats = test: Corneal scraping (deshepithelization) wound healing model in the rat, repeated instillations; format: in vivo
Experimental: Brief description of the protocol: 16 male Sprague-Dawley rats weighting 100 to 125 g were randomly assigned to 4 groups (4 rats per group (Gp)): Gp1, Phosphate buffer solution (PBS); Gp2, 0.02% benzalkonium chloride (BAK); Gp3, Xalatan®; Gp4, Latanoprost Emulsion. Following general and local anesthesia with ketamine/xylazine and topical Oxybucaïne, respectively, the upper part of the right eye cornea of each rat was scraped with a surgical scalpel following an application of 50 μl of 50% ethanol solution. The upper corneal and limbal epithelia were removed (at day D0). One drop of Tobrex was instilled immediately after the scraping. 2 and 5 hours post scraping one drop of the different test articles were applied onto the cornea of the right eye. These latter instillations were repeated every day for 4 days, and corneal evaluation with an in vivo confocal microscope (IVCM-HRT) was performed on day 4 after the last instillation. At the end of the experimental procedure (the total duration of the treatment is 5 days; from day D0 to D4), the animals were sacrificed and the eyes harvested to characterize the histological organisation of the treated cornea.

Substance: benzalkonium chloride [0.02% BAK solution]
- closure of the cleft (scraping closure), cell survival and migration ([1]; 1/10 dilutions (FIGS. 7 & 8)): no or only little closure
- % of wound closure ([1]; 30 min incubation with 1/10 dilutions (FIG. 9)): 8%
- corneal opacity / scarification of the cornea (Sprague-Dawley rats; day 4 after scraping, repeated instillations, right eye (FIG. 1)): scarification of the cornea was dramatic
- in vivo confocal microscopy (IVCM) of superficial epithelium: scar tissue / hypereflectivity (Sprague-Dawley rats; rat, in vivo): scar tissue (hypereflectivity)
